Source: patent US8114589B2, “Self-addressable self-assembling microelectronic integrated systems, component devices, mechanisms, methods, and procedures for molecular biological analysis and diagnostics” (Gamida For Life B.V., priority 1996, dated 2012)

How the values were obtained:
[1] = test system: btrRCA5 to ATA5 capture oligonucleotide; assay: Accumulation and electronic hybridization in test buffers; conditions: for hybridization efficiency: [(specific hybridization)/(transported)] × 100; for transported: fluorescent signal at completion of electronic targeting; for transported / specific hybridization: value +/− SEM, 50 mM buffer; for support of sequence specific electronic hybridization: in words
Procedure: Microelectronic Chips, Permeation Layer and Instrumentation—These have been described previously with the following exception. The permeation layer employed herein has an underlayer of agarose beneath the top streptavidin-containing agarose layer (approximately one micron in total thickness). To make the underlayer, […] glyoxal agarose (2%) was spun on at 2000 rpms for 20 sec prior to the application of the streptavidin-agarose layer. In brief, the 5580 series APEX chip used for these experiments consists of a 5×5 array of […] circular microelectrodes with […] microelectrodes at each corner of the array. Chips were mounted on a micromanipulator stage and the microelectrodes activated by a power supply and appropriately controlled relay switches. Fluorescently labeled oligonucleotides on the chip were visualized using oblique illumination with two 594 nm HeNe lasers and the images were quantified using either NIH Image or IPLab Spectrum software packages.
Accumulation and Hybridization—Two biotinylated capture oligonucleotides, ATA5 and ATA4 were electronically transported and localized at adjacent microelectrodes. The solution was removed and the chip washed 3-4× in test buffer. Buffers employed in these studies are listed in Table 3 and were utilized at the listed pH values and concentrations presented.
The L-isomers of amino acids were used, unless otherwise noted. The chip was equilibrated in test buffer for 5-10 min. Then fresh buffer containing 10 nM BODIPY-Texas Red labeled RCA5 (btrRCA5), an oligonucleotide complementary to ATA5 but not ATA4 (RS paper) was applied.
The […] microelectrodes were employed as cathodes and one microelectrode within the array used as the corresponding anode. Accumulation was assessed by sourcing a 500 nA constant current to individual microelectrodes for 30 sec and monitoring the accumulation of fluorescence at the positively-biased (anode) site in the microelectrode array. Signal arising from non-fluorescent sources (ie. thermal noise, etc.) was subtracted. Experiments examining the effect of different currents upon signal accumulation were conducted in a similar fashion except that the applied current varied from 100 nA to 1 mA. […] For the comparison between conductivities of various buffers, the data is presented as fold increase over initial fluorescence to account for chip-to-chip variation as well as laser illumination variations in signal levels. For other experiments, the data is presented as attomol product versus time, after converting^2 the observed fluorescence intensity to moles of labeled oligonucleotide.
Following accumulation at one microelectrode location, the buffer was removed and fresh buffer containing btrRCA5 applied. An adjacent microelectrode was then sourced in a similar fashion. Upon completion, the buffer was removed and the chip washed 5-7× with test buffer without btrRCA5. The pair of previously targeted microelectrodes were then illuminated and the fluorescence present at each site quantified. Control experiments utilized a bodipy-Texas Red labeled oligonucleotide complementary to ATA4 to verify the integrity and concentration of the ATA4 capture oligonucleotide. Percent hybridization efficiency was calculated as follows: (complementary oligonucleotide signal−noncomplementary signal)/(signal present immediately prior to the end of the applied current)×100.

[2] = Buffer conductivity and pH measurements; assay type: physicochemical; design: conductivity: unit not given here; conditions: for conductivity: RT; for pH: in water at room temperature
Procedure: Buffer Conductivity and pH Measurements—The conductivities of test buffer solutions utilized for transport and hybridization were measured at RT using an Accumet 1.0 cm^−1 glass conductivity cell connected to an Accumet Model 50 pH/Ion/Conductivity meter (Fisher Scientific). Buffer pH values were obtained using an Accu-pHast variable temperature combination electrode and the same model meter.

[3] = cited from earlier work; for pl: Table 3
[4] = test system: btr-RCA5 fluorescent DNA probe; assay: Fluorescent DNA checkerboard addressing; conditions: bias reversed every 6 seconds, 80 micron microlocations
[5] = Conductivity measurements of transport buffers; assay type: physicochemical; conditions: for Average/Std. Deviation / Measurement 1 / Measurement 2 / Measurement 3: conductivity
[6] = test system: Reporter DNA to DNA1 or PNA1 capture; assay: Hybridization of phosphodiester-linked oligonucleotides versus PNA analogues; conditions: 50 mM buffer
[7] = Buffer capacity, pH and conductivity of buffers used on the APEX chip; conditions: for PH: NaPO4: 20 mM adjusted to pH 7.4
[8] = test system: DNA; assay: DNA transport (accumulation) on the APEX chip; conditions: in words, same field conditions

Compound: Cn1cncc1C[C@H](N)C(=O)O [1(π)-methylhistidine]
- hybridization efficiency [1]: 21.3
- transported [1]: 141 +/− 20
- specific hybridization [1]: 30.0 +/− 5.0 attomol
- conductivity ([2]; 50 mM): 117 +/− 2.8
- pH ([2]; 50 mM): 7.59
- pl [3]: 7.54

Compound: Cn1cnc(C[C@H](N)C(=O)O)c1 [3(τ)-methylhistidine]
- hybridization efficiency [1]: 20.8
- transported [1]: 259 +/− 48
- specific hybridization [1]: 54.0 +/− 14.8 attomol
- conductivity ([2]; 50 mM): 39.4 +/− 0.4
- pH ([2]; 50 mM): 7.44
- pl [3]: 7.52

Compound: O=C([O-])CC(O)(CC(=O)[O-])C(=O)[O-].[Na+].[Na+].[Na+] [3.3 mM NaCitrate, sodium citrate]
- checkerboard addressing and concentration of fluorescent DNA probe [4]: Rapid (6 second) checkerboard addressing and concentration of the btr-RCA5 fluorescent DNA probe was demonstrated
- Average/Std. Deviation [5]: 986 +/− 38.1 μS/cm
- Measurement 1 [5]: 964 μS/cm
- Measurement 2 [5]: 1.03 mS/cm
- Measurement 3 [5]: 964 μS/cm

Compound: O=C([O-])C(=O)[O-].[Na+].[Na+] [5 mM NaOxalate]
- Average/Std. Deviation [5]: 1.06 +/− 0.055 mS/cm
- Measurement 1 [5]: 1.02 mS/cm
- Measurement 2 [5]: 1.03 mS/cm
- Measurement 3 [5]: 1.12 mS/cm

Compound: O=C([O-])CCC(=O)[O-].[Na+].[Na+] [5 mM NaSuccinate, sodium succinate]
- checkerboard addressing and concentration of fluorescent DNA probe [4]: Rapid (6 second) checkerboard addressing and concentration of the btr-RCA5 fluorescent DNA probe was demonstrated

Compound: [Cl-].[Cl-].[Mg+2] [10 mM MgCl2, MgCl2]
- Average/Std. Deviation [5]: 2.03 +/− 0.09 mS/cm
- Measurement 1 [5]: 1.95 mS/cm
- Measurement 2 [5]: 2.02 mS/cm
- Measurement 3 [5]: 2.13 mS/cm
- Average/Std. Deviation ([5]; listed as 0.1 mM MgCl2): 17.3 +/− 0.87 μS/cm
- Measurement 1 ([5]; listed as 0.1 mM MgCl2): 16.9 μS/cm
- Measurement 2 ([5]; listed as 0.1 mM MgCl2): 16.7 μS/cm
- Measurement 3 ([5]; listed as 0.1 mM MgCl2): 18.3 μS/cm
- Average/Std. Deviation ([5]; listed as 1 mM MgCl2): 186 +/− 18.8 μS/cm
- Measurement 1 ([5]; listed as 1 mM MgCl2): 174 μS/cm
- Measurement 2 ([5]; listed as 1 mM MgCl2): 208 μS/cm
- Measurement 3 ([5]; listed as 1 mM MgCl2): 177 μS/cm

Compound: CC(=O)[O-].[Na+] [10 mM NaAcetate]
- Average/Std. Deviation [5]: 934 +/− 43.5 μS/cm
- Measurement 1 [5]: 901 μS/cm
- Measurement 2 [5]: 917 μS/cm
- Measurement 3 [5]: 983 μS/cm

Compound: [Cl-].[Na+] [10 mM NaCl, NaCl]
- Average/Std. Deviation [5]: 1.12 +/− 0.057 mS/cm
- Measurement 1 [5]: 1.07 mS/cm
- Measurement 2 [5]: 1.10 mS/cm
- Measurement 3 [5]: 1.18 mS/cm
- Average/Std. Deviation ([5]; listed as 0.1 mM NaCl): 9.43 +/− 0.93 μS/cm
- Measurement 1 ([5]; listed as 0.1 mM NaCl): 8.80 μS/cm
- Measurement 2 ([5]; listed as 0.1 mM NaCl): 8.98 μS/cm
- Measurement 3 ([5]; listed as 0.1 mM NaCl): 10.5 μS/cm
- Average/Std. Deviation ([5]; listed as 1 mM NaCl): 112.7 +/− 2.08 μS/cm
- Measurement 1 ([5]; listed as 1 mM NaCl): 112 μS/cm
- Measurement 2 ([5]; listed as 1 mM NaCl): 115 μS/cm
- Measurement 3 ([5]; listed as 1 mM NaCl): 111 μS/cm

Compound: NC(CO)(CO)CO [50 mM TRIS, TRIS]
- Average/Std. Deviation [5]: 3.35 +/− 0.19 mS/cm
- Measurement 1 [5]: 3.50 mS/cm
- Measurement 2 [5]: 3.14 mS/cm
- Measurement 3 [5]: 3.40 mS/cm
- Average/Std. Deviation ([5]; listed as 10 mM TRIS): 572 +/− 10.5 μS/cm
- Measurement 1 ([5]; listed as 10 mM TRIS): 572 μS/cm
- Measurement 2 ([5]; listed as 10 mM TRIS): 562 μS/cm
- Measurement 3 ([5]; listed as 10 mM TRIS): 583 μS/cm

Compound: N[C@H](Cc1c[nH]cn1)C(=O)O [D-histidine]
- hybridization efficiency [1]: 24.3
- transported [1]: 490 +/− 50
- specific hybridization [1]: 119 +/− 11.8 attomol
- conductivity ([2]; 50 mM): 57.1 +/− 0.3
- pH ([2]; 50 mM): 7.70
- pl [3]: 7.47

Compound: NCCCC(=O)O [GABA, g-amino-butyric acid]
- support of sequence specific electronic hybridization [1]: neither GABA, b-alanine, nor glycine was capable of supporting sequence specific hybridization
- DNA:DNA hybridization ([6]; 200 nA): no hybridization was observed
- PNA:DNA hybridization ([6]; 200 nA): Hybridization in GABA was seen
- hybridization with either PNA:DNA or DNA:DNA duplexes ([6]; 500 nA): lack of hybridization
- conductivity ([2]; 50 mM): 5.6 +/− 0.6
- pH ([2]; 50 mM): 6.76
- pl [3]: 7.30

Compound: N[C@@H](Cc1c[nH]cn1)C(=O)O [L-histidine]
- non-specific signal as compared to the amount of material transported [1]: 2.2%
- hybridization efficiency [1]: 14.6
- transported [1]: 533 +/− 65
- specific hybridization [1]: 78.0 +/− 9.1 attomol
- conductivity ([2]; 50 mM): 60.1 +/− 0.1
- pH ([2]; 50 mM): 7.65
- pl [3]: 7.47

Compound: O=P(O)(O)O [NaPO4, Sodium Phosphate]
- conductivity [7]: 1,400.0 μS
- PH [7]: 7.4
- transport [8]: fair transport
- conductance [5]: ~2.9 mS/cm
- Average/Std. Deviation ([5]; listed as 1 mM NaPO4): 128.7 +/− 7.0 μS/cm
- Measurement 1 ([5]; listed as 1 mM NaPO4): 122 μS/cm
- Measurement 2 ([5]; listed as 1 mM NaPO4): 128 μS/cm
- Measurement 3 ([5]; listed as 1 mM NaPO4): 136 μS/cm
- Average/Std. Deviation ([5]; listed as 10 mM NaPO4): 1.44 +/− 0.04 mS/cm
- Measurement 1 ([5]; listed as 10 mM NaPO4): 1.40 mS/cm
- Measurement 2 ([5]; listed as 10 mM NaPO4): 1.44 mS/cm
- Measurement 3 ([5]; listed as 10 mM NaPO4): 1.48 mS/cm
- Average/Std. Deviation ([5]; listed as 20 mM NaPO4): 2.90 +/− 0.11 mS/cm
- Measurement 1 ([5]; listed as 20 mM NaPO4): 2.90 mS/cm
- Measurement 2 ([5]; listed as 20 mM NaPO4): 2.79 mS/cm
- Measurement 3 ([5]; listed as 20 mM NaPO4): 3.00 mS/cm

Compound: NCCS(=O)(=O)O [Taurine]
- conductivity [7]: 4.5 μS
- PH [7]: 4.6
- transport [8]: excellent transport

Compound: NCCC(=O)N[C@@H](Cc1cnc[nH]1)C(=O)O [carnosine]
- hybridization efficiency [1]: 26.1
- transported [1]: 129 +/− 45
- specific hybridization [1]: 33.7 +/− 12.1 attomol
- conductivity ([2]; 50 mM): 74.5 +/− 5.5
- pH ([2]; 50 mM): 8.07
- pl [3]: 8.17

Compound: Cc1cc(C)nc(C)c1 [collidine]
- hybridization efficiency [1]: 3.7
- transported [1]: 382 +/− 63
- specific hybridization [1]: 14.1 +/− 4.6 attomol

Compound: N[C@@H](CCC(=O)O)C(=O)O [glutamic acid]
- pI [3]: 3.22

Compound: NCC(=O)O [glycine]
- support of sequence specific electronic hybridization [1]: neither GABA, b-alanine, nor glycine was capable of supporting sequence specific hybridization
- conductivity ([2]; 50 mM): 2.5 +/− 0.2
- pH ([2]; 50 mM): 6.01
- conductivity ([2]; 250 mM): 7.8 +/− 0.5
- pH ([2]; 250 mM): 6.11
- pl [3]: 5.97

Compound: c1ccncc1 [pyridine]
- transported [1]: 764 +/− 66
- specific hybridization [1]: 12.8 +/− 4.2 attomol
- conductivity ([2]; 50 mM): 5.0 +/− 0.8
- pH ([2]; 50 mM): 8.17

Compound: NCCC(=O)O [β-Alanine]
- support of sequence specific electronic hybridization [1]: neither GABA, b-alanine, nor glycine was capable of supporting sequence specific hybridization
- conductivity [7]: 10.0 μS
- PH [7]: 7.3
- transport [8]: excellent transport
- conductivity ([2]; 50 mM): 3.6 +/− 0.6
- pH ([2]; 50 mM): 6.71
- pK1 ([3]; Table 2): pK1 - 3.6
- pK2 ([3]; Table 2): pK2 - 10.2
- pl [3]: 6.90

Compound: Tris-Borate [100 mM Tris-Borate]
- conductivity [5]: 694 μS/cm

Compound: water [Milli-Q water]
- checkerboard addressing and concentration of fluorescent DNA probe [4]: Rapid (6 second) checkerboard addressing and concentration of the btr-RCA5 fluorescent DNA probe was demonstrated
